Values of other authors in patent publication US20080280861A1, “Method of Female Contraception and a Kit For Use Therein” (PANTARHEI BIOSCIENCE B.V., priority 2004, published 2008).

Details: relative to levonorgestrel dosage; known in the art

## C#C[C@]1(OC(C)=O)CC[C@H]2[C@@H]3CCC4=CC(=NO)CC[C@@H]4[C@H]3CC[C@@]21CC (mixture of isomers) [Norgestimate]
  Conversion factor: 1.7

## C[C@]12CCC(=O)C=C1[C@@H]1C[C@@H]1[C@H]1[C@@H]3[C@@H]4C[C@@H]4[C@@]4(CCC(=O)O4)[C@@]3(C)CC[C@@H]12 [Drospirenone]
  Conversion factor: 20

## CC(=O)[C@H]1CC[C@H]2[C@@H]3C=CC4=CC(=O)CC[C@@]4(C)[C@@H]3CC[C@]12C [Dydrogesterone]
  Conversion factor: 133

## C#C[C@]1(O)CC[C@H]2[C@@H]3CCC4=CC(=O)CC[C@@H]4[C@H]3CC[C@@]21C [Norethisterone]
  Conversion factor: 7
